# Measured values from patent US20080300231A1, “Antibacterial amide macrocycles VI” (priority 2005, published 2008).
# System: S. aureus T17
# Experiment: Minimum inhibitory concentration (MIC), biphenomycin-resistant S. aureus T17
# Format: cell-based
# Description: Determination of the Minimum Inhibitory Concentration (MIC)
# The minimum inhibitory concentration (MIC) is the minimum concentration of an antibiotic with which the growth of a test microbe is inhibited over 18-24 h. The inhibitor concentration can in these cases be determined by standard microbiological methods (see, for example, The National Committee for Clinical Laboratory Standards. Methods for dilution antimicrobial susceptibility tests for bacteria that grow aerobically; approved standard-fifth edition. NCCLS document M7-A5 [ISBN 1-56238-394-9]. NCCLS, 940 West Valley Road, Suite 1400, Wayne, Pa. 19087-1898 USA, 2000). The MIC of the compounds of the invention is determined in the liquid dilution test on the 96-well microtitre plate scale. The bacterial microbes are cultivated in a minimal medium (18.5 mM Na2HPO4, 5.7 mM KH2PO4, 9.3 mM NH4Cl, 2.8 mM MgSO4, 17.1 mM NaCl, 0.033 μg/ml of thiamine hydrochloride, 1.2 μg/ml of nicotinic acid, 0.003 μg/ml of biotin, 1% glucose, 25 μg/ml of each proteinogenic amino acid with the exception of phenylalanine; [H.-P. Kroll; unpublished]) with addition of 0.4% BH broth (test medium). In the case of Enterococcus faecium L4001, heat-inactivated fetal calf serum (FCS; GibcoBRL, Germany) is added to the test medium in a final concentration of 10%. Overnight cultures of the test microbes are diluted to an OD578 of 0.001 (to 0.01 in the case of enterococci) in fresh test medium, and incubated 1:1 with dilutions of the test substances (1:2 dilution steps) in test medium (200 μl final volume). The cultures are incubated at 37° C. for 18-24 hours; enterococci in the presence of 5% CO2
# The lowest substance concentration in each case at which no visible bacterial growth occurs any more is defined as the MIC.
# Alternative Method for Determining the Minimum Inhibitory Concentration (MIC)
# The minimum inhibitory concentration (MIC) is the minimum concentration of an antibiotic with which the growth of a test microbe is inhibited over 18-24 h. The inhibitor concentration can in these cases be determined by standard microbiological methods with modified medium in an agar dilution test (see, for example, The National Committee for Clinical Laboratory Standards. Methods for dilution antimicrobial susceptibility tests for bacteria that grow aerobically; approved standard-fifth edition. NCCLS document M7-A5 [ISBN 1-56238-394-9]. NCCLS, 940 West Valley Road, Suite 1400, Wayne, Pa. 19087-1898 USA, 2000). The bacterial microbes are cultivated on 1.5% agar plates which contain 20% defibrinated horse blood. The test microbes, which are incubated overnight on Columbia blood agar plates (Becton-Dickinson), are diluted in PBS, adjusted to a microbe count of about 5×10^5 microbes/ml and placed dropwise (1-3 μl) on test plates. The test substances comprise different dilutions of the test substances (1:2 dilution steps). The cultures are incubated at 37° C. in the presence of 5% CO2 for 18-24 hours.
# The lowest substance concentration in each case at which no visible bacterial growth occurred any more is defined as the MIC and is reported in μg/ml.
# The S. aureus strain T17 is isolated in vivo. CFW1 mice are infected intraperitoneally with 4×10^7 S. aureus 133 cells per mouse. 0.5 h after the infection, the animals are treated intravenously with 50 mg/kg biphenomycin B. The kidneys are removed from the surviving animals on day 3 after the infection. After homogenization of the organs, the homogenates are plated out as described for RN4220Bi^R on antibiotic-free and antibiotic-containing agar plates and incubated at 37° C. overnight. […] About 20 of these colonies are tested for the biphenomycin B MIC, and a colony with a MIC of >50 μM is selected for further cultivation, and the strain is referred to as T17.
structure (smiles),measurement,setting,value
"NC[C@H](O)C[C@@H]1NC(=O)[C@@H](N)Cc2cc(ccc2O)-c2ccc(O)c(c2)C[C@@H](C(=O)O)NC1=O [Biphenomycin B, biphenomycin B, reference compound]",MIC S. aureus T17,biphenomycin-resistant S. aureus T17,>32 µg/mL
same,MIC,colony from kidney selected as strain T17,> 50 µM
